From US10005818B2, “Derivative peptide compounds and methods of use” (REALTA HOLDINGS, LLC, priority 2010, dated 2018)
Square brackets hold non-standard residues; d marks the D form. Ends that are not written are not given here. Peptide text beside a SMILES is read from it. Sar = CNCC(=O)O

Experiments:
[1] = test system: complement activation in factor B-depleted human sera; assay type: biochemical
Procedure: Peptides were diluted to 0.77 mM in factor B-depleted human sera (Complement Technologies, Inc.) and incubated for 1 hour at 37° C. These peptides were then diluted with GVBS^++ to equal 2.5/s serum, of which 0.25 ml was combined with 0.4 ml of GVBS^++ and 0.1 ml of sensitized sheep red blood cells (RBCs) and again incubated for 1 hour at 37° C. The procedure was stopped by the addition of 4.0 ml of GVBS^−−, centrifuged for 5 minutes at 1,620×g, and the absorbance of the supernatants was read at 412 nm in a spectrophotometer. The percent lysis of each sample was standardized to that of the serum only control.
The final concentration of peptide in factor B-depleted serum was 0.77 mM. Each peptide was evaluated in triplicate and the mean values are reported. […] In the hemolytic assay, soluble peptides are standardized to water and insoluble peptides standardized to DMSO.
Polar Assortant peptides were serially diluted in undiluted factor B-depleted human sera (Complement Technologies, Inc.) and incubated for 1 hour at 37° C. Water, GVBS^++ and DMSO were included as controls. These peptides were then diluted with GVBS^++ to equal 2.5/s serum, of which 0.25 ml was combined with 0.4 ml of GVBS^++ and 0.1 ml of sensitized sheep red blood cells (RBCs) and again incubated for 1 hour at 37° C. The procedure was stopped by the addition of 4.0 ml of GVBS^−−, centrifuged for 5 minutes at 1,620×g, and the absorbance of the supernatants was read at 412 nm in a spectrophotometer. The percent lysis of each sample was standardized to that of the serum only control.
The final concentration of peptide in factor B-depleted serum was 0.77 mM. […] In the hemolytic assay, soluble peptides were standardized to water and insoluble peptides standardized to DMSO.
The final concentration of peptide in factor B-depleted serum was 0.77 mM. […] In the hemolytic assay, soluble peptides are standardized to water and insoluble peptides standardized to DMSO.

Solubility in water = assay type: physicochemical
[2] = Table 7, PEGylated and sarcosine/alanine substitution peptides
[3] = Table 5, sarcosine substitution peptides

Compound	Hemolysis (%) [1]	Solubility in water (Solubility in water; [2])	Solubility in water (Solubility in water; [3])
CC[C@H](C)[C@H](N)C(=O)N[C@@H](C)C(=O)N[C@@H](CC(C)C)C(=O)N[C@H](C(=O)N[C@@H](CC(C)C)C(=O)N[C@@H](CCC(=O)O)C(=O)N1CCC[C@H]1C(=O)N[C@H](C(=O)N[C@@H](CS)C(=O)N[C@@H](CS)C(=O)N[C@@H](CCC(N)=O)C(=O)N[C@@H](CCC(=O)O)C(=O)N(C)CC(=O)N[C@@H](C)C(=O)N[C@@H](C)C(=O)NCCOCCOCCOCCOCCOCCOCCOCCOCCOCCOCCOCCOCCOCCOCCOCCOCCOCCOCCOCCOCCOCCOCCOCCOCCC(=O)O)[C@@H](C)CC)[C@@H](C)CC [PA-R13Sar-dPEG24]	4.26%	Yes	–
CC[C@H](C)[C@H](N)C(=O)N[C@@H](C)C(=O)N[C@@H](CC(C)C)C(=O)N[C@H](C(=O)N[C@@H](CC(C)C)C(=O)N[C@@H](CCC(=O)O)C(=O)N1CCC[C@H]1C(=O)N[C@H](C(=O)N[C@@H](CS)C(=O)N[C@@H](CS)C(=O)N[C@@H](CCC(N)=O)C(=O)N[C@@H](CCC(=O)O)C(=O)N(C)CC(=O)N[C@@H](C)C(=O)N[C@@H](C)C(=O)O)[C@@H](C)CC)[C@@H](C)CC [PA-R13Sar]	3.42%	–	No
CC[C@H](C)[C@H](N)C(=O)N[C@@H](C)C(=O)N[C@@H](CC(C)C)C(=O)N[C@H](C(=O)N[C@@H](CC(C)C)C(=O)N[C@@H](CCC(=O)O)C(=O)N1CCC[C@H]1C(=O)N[C@H](C(=O)N(C)CC(=O)N[C@@H](CS)C(=O)N[C@@H](CCC(N)=O)C(=O)N[C@@H](CCC(=O)O)C(=O)N[C@@H](CCCNC(=N)N)C(=O)N(C)CC(=O)N[C@@H](C)C(=O)O)[C@@H](C)CC)[C@@H](C)CC [Peptide A14SarC9Sar] (H-IALILEPI[Sar]CQER[Sar]A-OH)	14.73%	No	–
CC[C@H](C)[C@H](N)C(=O)N[C@@H](C)C(=O)N[C@@H](CC(C)C)C(=O)N[C@H](C(=O)N[C@@H](CC(C)C)C(=O)N[C@@H](CCC(=O)O)C(=O)N(C)CC(=O)N[C@H](C(=O)N[C@@H](CS)C(=O)N[C@@H](CS)C(=O)N[C@@H](CCC(N)=O)C(=O)N[C@@H](CCC(=O)O)C(=O)N[C@@H](CCCNC(=N)N)C(=O)N(C)CC(=O)N[C@@H](C)C(=O)O)[C@@H](C)CC)[C@@H](C)CC [Peptide A14SarP7Sar, IALILE(Sar)ICCQER(Sar)A] (H-IALILE[Sar]ICCQER[Sar]A-OH; N-terminus and C-terminus assumed)	4.37%	Yes	–
CC[C@H](C)[C@H](N)C(=O)N[C@@H](C)C(=O)N[C@@H](CC(C)C)C(=O)N[C@H](C(=O)N[C@@H](CC(C)C)C(=O)N[C@@H](C)C(=O)N1CCC[C@H]1C(=O)N[C@H](C(=O)N(C)CC(=O)N[C@@H](CS)C(=O)N[C@@H](CCC(N)=O)C(=O)N[C@@H](C)C(=O)N[C@@H](CCCNC(=N)N)C(=O)N[C@@H](C)C(=O)N[C@@H](C)C(=O)O)[C@@H](C)CC)[C@@H](C)CC [Peptide E6AE12AC9Sar] (H-IALILAPI[Sar]CQARAA-OH)	2.99%	No	–
CC[C@H](C)[C@H](N)C(=O)N[C@@H](C)C(=O)N[C@@H](CC(C)C)C(=O)N[C@H](C(=O)N[C@@H](CC(C)C)C(=O)N[C@@H](C)C(=O)N(C)CC(=O)N[C@H](C(=O)N[C@@H](CS)C(=O)N[C@@H](CS)C(=O)N[C@@H](CCC(N)=O)C(=O)N[C@@H](C)C(=O)N[C@@H](CCCNC(=N)N)C(=O)N[C@@H](C)C(=O)N[C@@H](C)C(=O)O)[C@@H](C)CC)[C@@H](C)CC [Peptide E6AE12AP7Sar] (H-IALILA[Sar]ICCQARAA-OH; N-terminus and C-terminus assumed)	4.60%	Yes	–
CC[C@H](C)[C@H](N)C(=O)N[C@@H](C)C(=O)N[C@@H](CC(C)C)C(=O)N[C@H](C(=O)N[C@@H](CC(C)C)C(=O)N(C)CC(=O)N1CCC[C@H]1C(=O)N[C@H](C(=O)N(C)CC(=O)N[C@@H](CS)C(=O)N[C@@H](CCC(N)=O)C(=O)N[C@@H](CCC(=O)O)C(=O)N[C@@H](CCCNC(=N)N)C(=O)N[C@@H](C)C(=O)N[C@@H](C)C(=O)O)[C@@H](C)CC)[C@@H](C)CC [Peptide E6SarC9Sar, IALIL(Sar)PI(Sar)CQERAA] (H-IALIL[Sar]PI[Sar]CQERAA-OH)	6.21%	Yes	–
CC[C@H](C)[C@H](N)C(=O)N[C@@H](C)C(=O)N[C@@H](CC(C)C)C(=O)N[C@H](C(=O)N[C@@H](CC(C)C)C(=O)N(C)CC(=O)N(C)CC(=O)N[C@H](C(=O)N[C@@H](CS)C(=O)N[C@@H](CS)C(=O)N[C@@H](CCC(N)=O)C(=O)N[C@@H](CCC(=O)O)C(=O)N[C@@H](CCCNC(=N)N)C(=O)N[C@@H](C)C(=O)N[C@@H](C)C(=O)O)[C@@H](C)CC)[C@@H](C)CC [Peptide E6SarP7Sar] (H-IALIL[Sar][Sar]ICCQERAA-OH; N-terminus and C-terminus assumed)	3.57%	Yes	–
CC[C@H](C)[C@H](N)C(=O)N[C@@H](C)C(=O)N[C@@H](CC(C)C)C(=O)N[C@H](C(=O)N[C@@H](CC(C)C)C(=O)N[C@@H](CCC(=O)O)C(=O)N1CCC[C@H]1C(=O)N[C@H](C(=O)N(C)CC(=O)N[C@@H](CS)C(=O)N(C)CC(=O)N[C@@H](CCC(=O)O)C(=O)N[C@@H](CCCNC(=N)N)C(=O)N[C@@H](C)C(=O)N[C@@H](C)C(=O)O)[C@@H](C)CC)[C@@H](C)CC [Peptide Q11SarC9Sar] (H-IALILEPI[Sar]C[Sar]ERAA-OH)	15.42%	Yes	–
CC[C@H](C)[C@H](N)C(=O)N[C@@H](C)C(=O)N[C@@H](CC(C)C)C(=O)N[C@H](C(=O)N[C@@H](CC(C)C)C(=O)N[C@@H](CCC(=O)O)C(=O)N(C)CC(=O)N[C@H](C(=O)N[C@@H](CS)C(=O)N[C@@H](CS)C(=O)N(C)CC(=O)N[C@@H](CCC(=O)O)C(=O)N[C@@H](CCCNC(=N)N)C(=O)N[C@@H](C)C(=O)N[C@@H](C)C(=O)O)[C@@H](C)CC)[C@@H](C)CC [Peptide Q11SarP7Sar, IALILE(Sar)ICC(Sar)ERAA] (H-IALILE[Sar]ICC[Sar]ERAA-OH; N-terminus and C-terminus assumed)	3.22%	Yes	–
CC[C@H](C)[C@H](N)C(=O)N[C@@H](C)C(=O)N[C@@H](CC(C)C)C(=O)N[C@H](C(=O)N[C@@H](CC(C)C)C(=O)N[C@@H](CCC(=O)O)C(=O)N1CCC[C@H]1C(=O)N[C@H](C(=O)N(C)CC(=O)N[C@@H](CS)C(=O)N[C@@H](CCC(N)=O)C(=O)N[C@@H](CCC(=O)O)C(=O)N(C)CC(=O)N[C@@H](C)C(=O)N[C@@H](C)C(=O)O)[C@@H](C)CC)[C@@H](C)CC [Peptide R13SarC9Sar] (H-IALILEPI[Sar]CQE[Sar]AA-OH)	84.81%	No	–
CC[C@H](C)[C@H](N)C(=O)N[C@@H](C)C(=O)N[C@@H](CC(C)C)C(=O)N[C@H](C(=O)N[C@@H](CC(C)C)C(=O)N[C@@H](CCC(=O)O)C(=O)N(C)CC(=O)N[C@H](C(=O)N[C@@H](CS)C(=O)N[C@@H](CS)C(=O)N[C@@H](CCC(N)=O)C(=O)N[C@@H](CCC(=O)O)C(=O)N(C)CC(=O)N[C@@H](C)C(=O)N[C@@H](C)C(=O)O)[C@@H](C)CC)[C@@H](C)CC [Peptide R13SarP7Sar, IALILE(Sar)ICCQE(Sar)AA] (H-IALILE[Sar]ICCQE[Sar]AA-OH)	26.35%	No	–
ALILEPICC[Sar]ERAA (cysteine pairing not given here) [PA-Q11Sar]	3.02%	–	No
